The target in data set [1] is xanthine oxidase-hypoxanthine (XO/HX) reaction. In words: Inhibitory effect on luminol-induced chemiluminescence (CL) which results from xanthine oxidase-hypoxanthine (XO/HX) reaction. Format: biochemical, cow. The note with it: 37° C, peak intensity, sample in dimethylsulfoxide. As for the experimental part:
Inhibitory effect on luminol-induced chemiluminescence (CL) which results from xanthine oxidase-hypoxanthine (XO/HX) reaction.
Four hundred and fifty micro liter of […] hypoxanthine (Kohjin Co., Ltd.) in 0.lM phosphate buffer solution (PBS)(pH 7.6), 10 μl of 1 mg/ml luminol (Nakarai Chemicals, Ltd.) in PBS and 10 μl of sample dissolved in dimethylsulfoxide were mixed in a round-bottomed vial, and preincubated for 3 min. at 37° C. And then, 50 μl of 0.05 unit/ml xanthine oxidase in 0.lM phosphate buffer solution (from cow milk, Boehringer Mannhein GmbH) was added. For the measurement of CL, a Biolumat (LB 9505, Berthold, FRG) was used. The vial containing XO/HX reaction mixture was placed into a Biolumat chamber at 37° C, and CL was continuously monitored using a computer (PC 9801 VM, NEC). Peak intensity was used as an index of CL.

Data set [2] deals with rat brain homogenate. Nature of the data set: Inhibitory effect on iron-dependent lipid peroxidation of rat brain homogenate (TBA-reactive products). The note with it: 37° C, 20 min. The data set is classed as biochemical, rat (male Sprague-Dawley). The protocol: Inhibitory effect on iron-dependent lipid peroxidation of rat brain homogenate
Method : (reported by J. M. Braughler et al.^1))
After decapitation,the brain was quickly removed (minus cerebellum), weighed, and placed in ice-cold Krebs buffer solution. The brain was homogenized in a ratio of 1 g of wet tissue to 9 ml of buffer in a teflon homogenizer. Homogenates were used immediately in lipid p-roxidation assays as follows.
* HEPES : N-(2-hydroxyethyl)piperazine-N'-2-ethanesulfonic acid (Sigma)
To the reaction mixture consisted of 50 μl of 6.25 mg/ml brain homogenate in Krebs buffer solution, 110 μl of Krebs buffer solution, 20 μl of sample dissolved in methanol was added 20 μl of aqueous 2 mM Fe(NH4)2 (SO4)2 solution, which was prepared freshly, at 37° C. After 20 min, the reaction was terminated by the addition of 30 μl of 35% perchloric acid. Then 20 μl of 500 μM desferoxamine mesylate (Sigma) in Krebs buffer solution was added to the reaction mixture to prevent further lipid peroxydation. After centrifugation at 2000 xg, 10 min, 4° C., 50 μl of supernatant was subsequently assayed for lipid peroxide.
Lipid peroxide was assessed as TBA-reactive product as described by H. Ohkawa et al ^2). The reaction mixture consisted of 50 μl of above-mentioned supernatant, 100 μl of aqueous 8.1% sodium dodecyl sulfate (SDS) solution, 750 μl of aqueous 20% acetic acid solution which was adjusted with aqueous lN NaOH solution to pH 3.5, 750 μl of aqueous 0.67% 2-thiobarbituric acid solution and 350 μl of distilled water was boiled for 1 hour and cooled in ice bath rapidly. 0.5 ml of distilled water and 2.5 ml of the mixture of n-butanol and pyridine (15:1, V/V) were added, and the mixture was shaken vigorously. After centrifugation at 1250 xg for 10 min, the fluorescence (excitation; 515 nm, emission; […]) of the organic layer was determined.

Data set [3] can be described thus: Solubility. Format: physicochemical.

In turn, `COc1cc2c(cc1O)CC(C(C)(C)O)O2` (stereo not shown) [Example 3, 2,3-Dihydro-2-(1-hydroxy-1-methylethyl)-6-methoxy-5-benzofuranol] had an IC50 in data set [1] of 320 nM. Further, the “Inhibition of TBA-reactive products generation” value in data set [2] (concentration 10^-4 M) was 95.5%; in data set [2] (concentration 10^-5 M), 45.4%; in data set [2] (concentration 10^-6 M), 20.0%; in data set [2] (concentration 10^-7 M) it was 11.4%. The Solubility result is “Soluble” in data set [3] (chloroform, diethyl ether, ethyl acetate, acetone, methanol and ethanol); “Sparingly Soluble” in data set [3] (hexane, water).
In the case of `COc1cc2c(cc1O)CC(C(C)(C)O)O2` (racemic) [Example 1, 2,3-dihydro-2-(1-hydroxy-1-methylethyl)-6-methoxy-5-benzofuranol], the IC50 in data set [1] was 380 nM.
As for `COc1cc2oc(C(C)C)cc2cc1O` [Example 2, 5-hydroxy-6-methoxy-2-(1-methylethyl)benzofuran], 4.7 nM corresponded to half-maximal inhibition in data set [1] (IC50).
Take `Cc1c(C)c2c(c(C)c1O)CCC(C)(CCCC(C)CCCC(C)CCCC(C)C)O2` (stereo not drawn) [α-Tocopherol, reference compound]: the “Inhibition of TBA-reactive products generation” value is 65.3% in data set [2] (concentration 10^-4 M), 25.7% in data set [2] (concentration 10^-5 M), 9.3% in data set [2] (concentration 10^-6 M) and 0% in data set [2] (concentration 10^-7 M).

One may read the IC50 as the point on the concentration scale where inhibition reaches its midpoint. Low values mean greater potency in that assay, high ones weaker potency in that assay.
